The source of these data is ChEMBL document CHEMBL1130610, “Synthesis and immunosuppressant activity of pyrazole carboxamides” (Bioorg Med Chem Lett, 1998).

In brackets after ≈: the same amount, converted by molar mass. Activity calls are given as the source filed them. No cut-off for these calls is given here. A value given as a limit tells only on which side of the number the result lay.

The species entered for series [1] is Homo sapiens. The series can be described thus: Immunosuppressant activity using human mixed leukocyte response (HMLR). In kind it is functional.
For series [2], the species on record is Rattus norvegicus. Description: Immunosuppressant activity in rat using mixed leukocyte response (MLR). Type of series: functional.
For series [3], the species on record is Homo sapiens. The series can be described thus: Compound was tested for immunosuppressant activity using human mixed leukocyte response(HMLR) assay. Type of series: functional.
Series [4] is described as follows: Half-life value was evaluated. Type of series: ADME.
The species entered for series [5] is Homo sapiens. The series can be described thus: Compound was tested for immunosuppressant activity using human mixed leukocyte response (HMLR). In kind it is functional.
For series [6], the species on record is Rattus norvegicus. The series can be described thus: Compound was tested for immunosuppressant activity in rat using mixed leukocyte response (MLR). Type of series: functional.
A short description of series [7]: Aqueous solubility at a pH of 7.3. Type of series: physicochemical. The settings on record: pH 7.3, read-out: S.
Series [8] in a line: C max value was evaluated. In kind it is ADME, organism-based. Conditions: in vivo.
Series [9] is filed under the species Homo sapiens. The series can be described thus: Compound was tested for immunosuppressant activity using human mixed leukocyte response(HMLR) at 10 uM; Not active. In kind it is functional.
The species named for series [10] is Homo sapiens. The series can be described thus: Compound was tested for immunosuppressant activity using human mixed leukocyte response(HMLR) at a concentration of 10 uM; Not active. In kind it is functional.
Series [11] is filed under the species Rattus norvegicus. The series can be described thus: Compound was tested for immunosuppressant activity in rat using mixed leukocyte response(MLR) at a concentration of 10 uM; Not active. In kind it is functional.
The species entered for series [12] is Rattus norvegicus. Description: Compound was tested for immunosuppressant activity in rat using mixed leukocyte response(MLR); Not active, < 20 % inhibition at 10 uM. In kind it is functional.
The species named for series [13] is Homo sapiens. The series can be described thus: Compound was tested for immunosuppressant activity using human mixed leukocyte response(HMLR); Not active, < 20 % inhibition at 10 uM. Type of series: functional.

`Cc1c(C(=O)Nc2cccc(F)c2)cnn1-c1ccc(F)cc1`: the IC50 was found to be 3000 nM in the series filed under Homo sapiens [1] and 800 nM in the series filed under Rattus norvegicus [2].

As for `Cc1oncc1C(=O)Nc1ccc(C(F)(F)F)cc1` [LEFLUNOMIDE], the IC50 turned out to be 5400 nM in the series filed under Homo sapiens [1] and 1000 nM in the series filed under Rattus norvegicus [2].

Consider `COc1cccc(NC(=O)c2cnn(-c3ccc(F)cc3)c2C)c1`, for which the IC50 in the series filed under Homo sapiens [1] came to 3700 nM; in the series listed under Rattus norvegicus [2], 3600 nM.

As to `Cc1c(C(=O)Nc2ccc(C(F)(F)F)cc2)cnn1-c1ccccc1C(F)(F)F`, the IC50 in the series listed under Homo sapiens [1] worked out at 2600 nM; in the series filed under Rattus norvegicus [2], 260 nM.

Turning to `Cc1c(C(=O)Nc2ccc(C(F)(F)F)cc2)cnn1CCc1ccc(F)cc1`, the results for the IC50 in the series filed under Homo sapiens [1] and in the series filed under Rattus norvegicus [2] were 5400 nM and 1700 nM, respectively.

As for `Cc1ccc(NC(=O)c2cnn(-c3ccc(F)cc3)c2C)cc1`, the IC50 in the series listed under Homo sapiens [1] is 540 nM; in the series listed under Rattus norvegicus [2], 200 nM.

With `Cc1c(C(=O)Nc2ccc(OC(F)(F)F)cc2)cnn1-c1ccc(F)cc1`, the IC50 was determined as 3400 nM in the series listed under Homo sapiens [1] and 2600 nM in the series filed under Rattus norvegicus [2].

As to `Cc1c(C(=O)Nc2ccc(F)cc2)cnn1-c1ccc(F)cc1`, the concentration for half-maximal inhibition (IC50) worked out at 2400 nM in the series listed under Homo sapiens [3] and 610 nM in the series filed under Rattus norvegicus [2].

For `Cc1ccccc1NC(=O)c1cnn(-c2ccc(F)cc2)c1C`, the results for the IC50 in the series filed under Homo sapiens [1] and in the series listed under Rattus norvegicus [2] were 1100 nM and 110 nM, respectively.

In the case of `Cc1c(C(=O)Nc2ccc(C(F)(F)F)cc2)cnn1-c1ccc(Cl)cc1`, the values for the IC50 in the series listed under Homo sapiens [1] and in the series listed under Rattus norvegicus [2] were 410 nM and 7400 nM, respectively.

`Cc1c(C(=O)Nc2ccc(C(F)(F)F)cc2)cnn1-c1ccc(F)cc1` gave a half-life in series [4] of 13.7 h. Besides, the IC50 in the series filed under Homo sapiens [5] came to 850 nM; in the series filed under Rattus norvegicus [6], 270 nM. The solubility in series [7] was 0.4 µg/mL (≈ 1.1 µM). The same molecule displayed a Cmax in [8] of 460 ng/mL.

`Cc1c(C(=O)Nc2ccc(C(F)(F)F)cc2)cnn1-c1cccc(F)c1`: the IC50 in the series listed under Homo sapiens [1] was 3100 nM; in the series filed under Rattus norvegicus [2], 220 nM.

As for `Cc1c(C(=O)Nc2ccc(C(F)(F)F)cc2)cnn1-c1ccccc1`, the IC50 in the series listed under Homo sapiens [1] stood at 2300 nM; in the series listed under Rattus norvegicus [2] it was 650 nM.

In the case of `Cc1cccc(NC(=O)c2cnn(-c3ccc(F)cc3)c2C)c1`, the results for the IC50 in the series filed under Homo sapiens [1] and in the series filed under Rattus norvegicus [2] were 5700 nM and 890 nM, respectively.

Take `Cc1c(C(=O)NCc2ccc(F)cc2)cnn1-c1ccc(F)cc1`: in the series filed under Homo sapiens [9], the inhibition at 10 µM is below 20%. This molecule came in with an IC50 in the series filed under Rattus norvegicus [2] of 330 nM.

For the molecule `Cc1n[nH]cc1C(=O)Nc1ccc(C(F)(F)F)cc1`, the inhibition at 10 µM in the series listed under Homo sapiens [10] and in the series listed under Rattus norvegicus [11] was below 20% each time.

Take `Cc1c(C(=O)Nc2ccc(C(F)(F)F)cc2)cnn1Cc1ccccc1`: the IC50 was determined as 3700 nM in the series filed under Homo sapiens [1] and 2700 nM in the series listed under Rattus norvegicus [2].

With `Cc1c(C(=O)Nc2ccc(C(F)(F)F)cc2)cnn1-c1ccc([N+](=O)[O-])cc1`, the IC50 in the series filed under Homo sapiens [1] came to 5700 nM; in the series filed under Rattus norvegicus [2], 2300 nM.

For `C/C(Nc1ccc(F)cc1)=C(/C#N)C(=O)Nc1ccc(C(F)(F)F)cc1`, the inhibition result in the series filed under Rattus norvegicus [12] and in the series filed under Homo sapiens [13] was “inactive” throughout.

The molecule `Cc1c(C(=O)N(CC(=O)O)c2ccc(C(F)(F)F)cc2)cnn1-c1ccc(F)cc1` showed a half-life in series [4] of 6 h. The IC50 in the series filed under Homo sapiens [1] worked out at 3200 nM; in the series listed under Rattus norvegicus [2], 310 nM. Also, in series [7], the solubility is 1530 µg/mL (≈ 3640 µM). In addition, the highest level in series [8] (Cmax) was 4450 ng/mL.

Consider `Cc1cccc(-n2ncc(C(=O)Nc3ccc(C(F)(F)F)cc3)c2C)c1`, for which the half-inhibitory concentration (IC50) was 2500 nM in the series listed under Homo sapiens [1] and 890 nM in the series filed under Rattus norvegicus [2].

Consider `Cc1c(C(=O)Nc2ccc(C(F)(F)F)cc2)cnn1-c1ccc(F)c(Cl)c1`, for which the IC50 in the series listed under Homo sapiens [1] is 1300 nM; in the series listed under Rattus norvegicus [2], 210 nM.

For the molecule `CCCCC(CC)NC(=O)c1cnn(-c2ccc(F)cc2)c1C` (stereo not given), the IC50 was 580 nM in the series filed under Homo sapiens [1] and 110 nM in the series filed under Rattus norvegicus [2].

For `Cc1c(-c2ccc(-c3ccccc3F)cc2)nc2ccc(F)cc2c1C(=O)O` [BREQUINAR], the IC50 turned out to be 3900 nM in the series listed under Homo sapiens [1] and 1600 nM in the series filed under Rattus norvegicus [2].

Consider `Cc1c(C(=O)Nc2ccc(C(F)(F)F)cc2)cnn1-c1cccc(Cl)c1Cl`, for which the IC50 in the series listed under Homo sapiens [1] came to 1600 nM; in the series filed under Rattus norvegicus [2] it was 240 nM.

As for `C/C(Nc1ccc([N+](=O)[O-])cc1)=C(/C#N)C(=O)Nc1ccc(C(F)(F)F)cc1`, the inhibition result in the series filed under Rattus norvegicus [12] and in the series filed under Homo sapiens [13] was “inactive” throughout.

As to `COc1ccc(-n2ncc(C(=O)Nc3ccc(C(F)(F)F)cc3)c2C)cc1`, the IC50 in the series listed under Homo sapiens [1] turned out to be 340 nM; in the series filed under Rattus norvegicus [2] it was 1000 nM.

Take `Cc1c(C(=O)Nc2ccc(C(F)(F)F)cc2)cnn1-c1ccccc1F`: the IC50 is 1100 nM in the series filed under Homo sapiens [1] and 110 nM in the series filed under Rattus norvegicus [2].

Take `Cc1cc(C)cc(-n2ncc(C(=O)Nc3ccc(C(F)(F)F)cc3)c2C)c1`: the half-inhibitory concentration (IC50) in the series listed under Homo sapiens [1] was 2200 nM; in the series filed under Rattus norvegicus [2], 410 nM.

The molecule `Cc1c(C(=O)NCCc2ccc(F)cc2)cnn1-c1ccc(F)cc1` returned an inhibition at 10 µM in the series filed under Homo sapiens [10] below 20%. In addition, in the series filed under Rattus norvegicus [2], the IC50 amounted to 300 nM.

Take `Cc1c(C(=O)Nc2ccccc2F)cnn1-c1ccc(F)cc1`: the results for the IC50 in the series listed under Homo sapiens [1] and in the series filed under Rattus norvegicus [2] were 4000 nM and 5100 nM, respectively.

As for `Cc1ccccc1-n1ncc(C(=O)Nc2ccc(C(F)(F)F)cc2)c1C`, the figures for the IC50 in the series filed under Homo sapiens [1] and in the series listed under Rattus norvegicus [2] were 1500 nM and 150 nM, respectively.

As for `Cc1c(C(=O)Nc2cccc(C(F)(F)F)c2)cnn1-c1ccc(F)cc1`, the IC50 in the series filed under Homo sapiens [1] came to 1700 nM; in the series listed under Rattus norvegicus [2], 1100 nM.

As for `Cc1c(C(=O)Nc2ccc(C(F)(F)F)cc2)cnn1Cc1ccc(F)cc1`, the IC50 came out at 3600 nM in the series listed under Homo sapiens [1] and 2400 nM in the series listed under Rattus norvegicus [2].

In the case of `Cc1ccc(-n2ncc(C(=O)Nc3ccc(C(F)(F)F)cc3)c2C)cc1`, the figures for the IC50 in the series filed under Homo sapiens [1] and in the series filed under Rattus norvegicus [2] were 410 nM and 1000 nM, respectively.

As for `C/C(Nc1ccccc1)=C(/C#N)C(=O)Nc1ccc(C(F)(F)F)cc1`, the inhibition result in the series filed under Rattus norvegicus [12] and in the series listed under Homo sapiens [13] was “inactive” throughout.

Consider `COc1cccc(-n2ncc(C(=O)Nc3ccc(C(F)(F)F)cc3)c2C)c1`, for which the IC50 in the series filed under Homo sapiens [1] and in the series listed under Rattus norvegicus [2] was 2500 nM throughout.
